Reference: ChEMBL document CHEMBL1201862, “PubChem BioAssay data set” (2004)
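Step 1: Grow cells in 96-well plates. Step 2: Expose to compound for 48 hours at 5 concentrations. Step 3: Interpolate endpoints linearly; if unreached, use highest concentration. GI50 = concentration required for 50% inhibition of growth.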 Activity calls are given as the source filed them. No stated cut-off is given here; in the data, active = GI50 up to about 1.1 µM and inactive = higher.

What was measured:
Experiment in all cases: NCI anticancer screen, dose series, 48 h
SK-MEL-5 = system: SK-MEL-5
T47D = system: T47D
NCI-H226 = system: NCI-H226
DU-145 = system: DU-145
MOLT-4 = system: MOLT-4
HCT-116 = system: HCT-116
Malme-3M = system: Malme-3M
MCF7 = system: MCF7
HOP-92 = system: HOP-92
CCRF-CEM = system: CCRF-CEM
UO-31 = system: UO-31
HOP-62 = system: HOP-62
KM12 = system: KM12
NCI-H460 = system: NCI-H460
UACC-62 = system: UACC-62
TK-10 = system: TK-10
OVCAR-3 = system: OVCAR-3
CAKI-1 = system: CAKI-1
OVCAR-5 = system: OVCAR-5
SNB-75 = system: SNB-75

Structure (SMILES)	GI50 (SK-MEL-5)	GI50 (T47D)	GI50 (NCI-H226)	GI50 (DU-145)	GI50 (MOLT-4)	GI50 (HCT-116)	GI50 (Malme-3M)	GI50 (MCF7)	GI50 (HOP-92)	GI50 (CCRF-CEM)	GI50 (UO-31)	GI50 (HOP-62)	GI50 (KM12)	GI50 (NCI-H460)	GI50 (UACC-62)	GI50 (TK-10)	GI50 (OVCAR-3)	GI50 (CAKI-1)	GI50 (OVCAR-5)	GI50 (SNB-75)
Cc1cc2nc3c(C#N)c4c(c(-c5ccc(Cl)cc5)n3c2cc1C)CCC4	19.6 µM (inactive)	22.3 µM (inactive)	21.1 µM (inactive)	20.9 µM (inactive)	25.1 µM (inactive)	18.7 µM (inactive)	23.3 µM (inactive)	33.1 µM (inactive)	20.3 µM (inactive)	24.2 µM (inactive)	19.9 µM (inactive)	22.4 µM (inactive)	22 µM (inactive)	43.2 µM (inactive)	18.4 µM (inactive)	22.1 µM (inactive)	20.3 µM (inactive)	19.4 µM (inactive)	–	–
COc1cccc(C2CC(=O)c3cccn32)c1 (stereo unspecified)	–	50.2 µM (inactive)	> 100 µM (inactive)	> 100 µM (inactive)	71.8 µM (inactive)	> 100 µM (inactive)	–	> 100 µM (inactive)	> 100 µM (inactive)	> 100 µM (inactive)	29.4 µM (inactive)	> 100 µM (inactive)	> 100 µM (inactive)	–	> 100 µM (inactive)	> 100 µM (inactive)	> 100 µM (inactive)	> 100 µM (inactive)	> 100 µM (inactive)	> 100 µM (inactive)
C[C@]12CCC3=NCCN3C1=CC[C@@H]1[C@@H]2CC[C@@]2(C)[C@H]1CC[C@]2(C)O	17.6 µM (inactive)	87.1 µM (inactive)	39.5 µM (inactive)	> 100 µM (inactive)	35.3 µM (inactive)	31 µM (inactive)	24.5 µM (inactive)	61.9 µM (inactive)	37.2 µM (inactive)	–	68.1 µM (inactive)	84.9 µM (inactive)	82.6 µM (inactive)	38.3 µM (inactive)	29.3 µM (inactive)	41.1 µM (inactive)	> 100 µM (inactive)	> 100 µM (inactive)	> 100 µM (inactive)	40.7 µM (inactive)
COc1cc(C2CC(C)(N3CCCC3)Oc3cc4c(cc32)OCO4)cc(OC)c1OC (stereo unspecified)	0.124 µM (active)	5.55 µM (inactive)	4.69 µM (inactive)	0.42 µM (active)	0.21 µM (active)	0.299 µM (active)	0.21 µM (active)	0.0925 µM (active)	62.1 µM (inactive)	0.184 µM (active)	0.624 µM (active)	0.335 µM (active)	0.182 µM (active)	0.288 µM (active)	–	–	0.129 µM (active)	0.527 µM (active)	> 100 µM (inactive)	0.0865 µM (active)
CC1(C)OC2C(CO)OC(n3cnc(N)nc3=O)C2O1 (stereo unspecified)	> 100 µM (inactive)	> 100 µM (inactive)	> 100 µM (inactive)	> 100 µM (inactive)	> 100 µM (inactive)	> 100 µM (inactive)	–	> 100 µM (inactive)	> 100 µM (inactive)	> 100 µM (inactive)	> 100 µM (inactive)	> 100 µM (inactive)	–	> 100 µM (inactive)	> 100 µM (inactive)	> 100 µM (inactive)	> 100 µM (inactive)	> 100 µM (inactive)	> 100 µM (inactive)	–
O=C1OC(C2OC(=O)c3cc(O)c(O)c(O)c3-c3c(O)c(O)c4oc(=O)c5c(c(O)c(O)c6oc(=O)c3c4c65)-c3c(cc(O)c(O)c3O)C(=O)OCC2O)C2OC(=O)c3c(c(O)c(O)c(O)c3[C@H]2O)-c2c1cc(O)c(O)c2O (stereo partly specified)	13.9 µM (inactive)	26.7 µM (inactive)	16.8 µM (inactive)	30.3 µM (inactive)	22.6 µM (inactive)	17.3 µM (inactive)	31.6 µM (inactive)	6.05 µM (inactive)	18.3 µM (inactive)	10.9 µM (inactive)	16.4 µM (inactive)	33.5 µM (inactive)	15.2 µM (inactive)	24.9 µM (inactive)	22.9 µM (inactive)	–	24.4 µM (inactive)	10.3 µM (inactive)	19.7 µM (inactive)	16.9 µM (inactive)
Oc1c([Si](c2ccccc2)(c2ccccc2)c2ccccc2)cc2ccccc2c1-c1c(O)c([Si](c2ccccc2)(c2ccccc2)c2ccccc2)cc2ccccc12	> 100 µM (inactive)	> 100 µM (inactive)	–	> 100 µM (inactive)	42.2 µM (inactive)	–	> 100 µM (inactive)	> 100 µM (inactive)	> 100 µM (inactive)	> 100 µM (inactive)	> 100 µM (inactive)	98.9 µM (inactive)	> 100 µM (inactive)	> 100 µM (inactive)	> 100 µM (inactive)	> 100 µM (inactive)	–	> 100 µM (inactive)	> 100 µM (inactive)	> 100 µM (inactive)
Cc1cc2c(-c3ccccc3)cc(=O)[nH]c2cc1N	> 100 µM (inactive)	> 100 µM (inactive)	> 100 µM (inactive)	> 100 µM (inactive)	> 100 µM (inactive)	> 100 µM (inactive)	–	> 100 µM (inactive)	> 100 µM (inactive)	> 100 µM (inactive)	> 100 µM (inactive)	> 100 µM (inactive)	> 100 µM (inactive)	> 100 µM (inactive)	> 100 µM (inactive)	–	> 100 µM (inactive)	> 100 µM (inactive)	> 100 µM (inactive)	> 100 µM (inactive)
Cc1ccccc1OC(C)C(=O)NN1C(=O)CSC1c1ccccc1 (stereo unspecified)	32.2 µM (inactive)	34.7 µM (inactive)	67.1 µM (inactive)	> 100 µM (inactive)	< 0.01 µM (active)	53.1 µM (inactive)	> 100 µM (inactive)	38.5 µM (inactive)	47.8 µM (inactive)	–	63.2 µM (inactive)	> 100 µM (inactive)	93.5 µM (inactive)	93.5 µM (inactive)	64.7 µM (inactive)	> 100 µM (inactive)	58.7 µM (inactive)	> 100 µM (inactive)	> 100 µM (inactive)	60.7 µM (inactive)
C1=C(CC2=C[P+](c3ccccc3)(c3ccccc3)C=C(c3ccccc3)O2)OC(c2ccccc2)=C[P+]1(c1ccccc1)c1ccccc1	0.293 µM (active)	0.17 µM (active)	–	0.482 µM (active)	0.489 µM (active)	0.332 µM (active)	0.248 µM (active)	0.392 µM (active)	0.166 µM (active)	0.361 µM (active)	1.56 µM (inactive)	0.597 µM (active)	0.325 µM (active)	0.577 µM (active)	–	0.475 µM (active)	0.32 µM (active)	2.21 µM (inactive)	1.04 µM (active)	0.291 µM (active)
CC1(C)O[C@@H]([C@H](O)CO)[C@H](O)[C@@H](C2SCCCS2)O1	> 100 µM (inactive)	> 100 µM (inactive)	> 100 µM (inactive)	> 100 µM (inactive)	> 10 µM (inactive)	> 100 µM (inactive)	–	> 100 µM (inactive)	34.4 µM (inactive)	–	> 100 µM (inactive)	> 100 µM (inactive)	> 100 µM (inactive)	> 100 µM (inactive)	> 100 µM (inactive)	> 100 µM (inactive)	> 100 µM (inactive)	> 100 µM (inactive)	> 100 µM (inactive)	> 100 µM (inactive)
O=C(O)CCC(=O)c1ccc[nH]1	> 100 µM (inactive)	> 100 µM (inactive)	64 µM (inactive)	> 100 µM (inactive)	> 100 µM (inactive)	> 100 µM (inactive)	> 100 µM (inactive)	> 100 µM (inactive)	> 100 µM (inactive)	–	> 100 µM (inactive)	> 100 µM (inactive)	> 100 µM (inactive)	> 100 µM (inactive)	> 100 µM (inactive)	> 100 µM (inactive)	> 100 µM (inactive)	> 100 µM (inactive)	> 100 µM (inactive)	> 100 µM (inactive)
CCCC(CCC(N)=O)(CCC(N)=O)[N+](=O)[O-]	> 100 µM (inactive)	> 100 µM (inactive)	> 100 µM (inactive)	> 100 µM (inactive)	> 100 µM (inactive)	> 100 µM (inactive)	> 100 µM (inactive)	> 100 µM (inactive)	> 100 µM (inactive)	> 100 µM (inactive)	> 100 µM (inactive)	–	> 100 µM (inactive)	> 100 µM (inactive)	> 100 µM (inactive)	> 100 µM (inactive)	–	> 100 µM (inactive)	> 100 µM (inactive)	> 100 µM (inactive)
Cc1cn(C2CC(N=[N+]=[N-])C(COP(=O)(O)OCC3OC(n4cc(F)c(=O)[nH]c4=O)CC3O)O2)c(=O)[nH]c1=O (stereo unspecified)	12.2 µM (inactive)	> 100 µM (inactive)	> 100 µM (inactive)	4.1 µM (inactive)	2.22 µM (inactive)	4.21 µM (inactive)	–	0.137 µM (active)	1.11 µM (active)	0.312 µM (active)	0.465 µM (active)	0.348 µM (active)	> 26.4 µM (inactive)	0.0292 µM (active)	8.34 µM (inactive)	> 100 µM (inactive)	> 100 µM (inactive)	1.32 µM (inactive)	> 100 µM (inactive)	9.06 µM (inactive)
CNC(=O)N1CCN(C(=O)NC)CCN(C(=O)NC)CC1	> 100 µM (inactive)	> 100 µM (inactive)	> 100 µM (inactive)	> 100 µM (inactive)	> 100 µM (inactive)	> 100 µM (inactive)	> 100 µM (inactive)	> 100 µM (inactive)	> 100 µM (inactive)	> 100 µM (inactive)	> 100 µM (inactive)	> 100 µM (inactive)	–	> 100 µM (inactive)	> 100 µM (inactive)	> 100 µM (inactive)	–	–	> 100 µM (inactive)	> 100 µM (inactive)
